Measured values published in US11931397B2, “Methods and compositions for the treatment of Sengers syndrome” (Stealth BioTherapeutics Inc., priority 2018, dated 2024).
Where a SMILES comes first, the peptide text is derived from it. Where no end group is shown, it is not given here. [ ]: non-standard residue; d: D form. Dmt = Cc1cc(O)cc(C)c1C[C@H](N)C(=O)O

Assays:
[1] = tested on: patient with a homozygous AGK founder mutation (Sengers syndrome); settings: approximately six months, 0.25 then 0.50 mg/kg/day intravenous
Protocol: The patient was treated with D-Arg-2′6′-Dmt-Lys-Phe-NH2 for approximately six months through a compassionate care protocol.

[2] = tested on: several mammalian cell types; settings: cited from earlier work
mu-opioid receptor = mu-opioid receptor (Homo sapiens, UniProt P35372); assay: Mu-opioid receptor agonist activity (stated, no test described); settings: statement of the description, no test given
mu-opioid receptor, sequence (P35372 whole entry, species assumed): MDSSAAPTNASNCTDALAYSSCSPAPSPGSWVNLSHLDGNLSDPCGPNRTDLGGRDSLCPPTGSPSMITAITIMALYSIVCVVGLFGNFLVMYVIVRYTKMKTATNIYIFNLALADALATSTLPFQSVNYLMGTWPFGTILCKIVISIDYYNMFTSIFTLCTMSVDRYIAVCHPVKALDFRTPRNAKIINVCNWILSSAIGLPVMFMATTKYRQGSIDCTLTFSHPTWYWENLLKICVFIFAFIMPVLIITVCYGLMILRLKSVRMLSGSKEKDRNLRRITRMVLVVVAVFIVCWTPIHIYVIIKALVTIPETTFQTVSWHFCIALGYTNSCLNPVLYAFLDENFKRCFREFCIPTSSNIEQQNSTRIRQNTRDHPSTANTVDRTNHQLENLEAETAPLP

With `Cc1cc(O)cc(C)c1C[C@H](NC(=O)[C@H](N)CCCNC(=N)N)C(=O)N[C@@H](CCCCN)C(=O)N[C@@H](Cc1ccccc1)C(N)=O` [D-Arg-2′6′-Dmt-Lys-Phe-NH2] (H-[dR][Dmt]KF-NH2) the “Side effects attributable to treatment” value [1] was “no discernable side effects”.

For 2′, 6′-Dmt-D-Arg-Phe-Lys-NH2, the “Penetration of the plasma membrane” value [2] is given as “readily penetrates the plasma membrane of several mammalian cell types in an energy-independent manner”.

For F[dR]FK-NH2, the “mu-opioid receptor agonist activity” value (mu-opioid receptor) was “does not have mu-opioid receptor agonist activity”.

In the case of Tyr-D-Arg-Phe-Lys-NH2, the “mu-opioid receptor agonist activity” value (mu-opioid receptor) was “has mu-opioid receptor agonist activity”.
